Experiments:
[1] = Retention of coupled FcMBL on the membrane under flow (PBS/EDTA wash fractions); type: physicochemical; conditions: Lot 152-04052017, Devices #1-#3, serial 45 mL fractions
Experimental: The FcMBL protein concentration in each sample was determined using the Pierce 660 nm assay and an FcMBL standard curve.
Three Filtrivas from Lot 152-04052017 (Devices #1, #2, and #3) were selected for analysis of their respective PBS/EDTA wash fractions to determine the extent to which the FcMBL bound to the membrane, remains bound under flow conditions. The mass of protein obtained from five serial fractions of 45 mL, three fractions from the Blood Port Output and two fractions from the subsequent Wash Buffer, was determined. […] After the second Blood Port Output, the amount of FcMBL in the subsequent fractions was undetectable (data not shown).

[2] = system: CD62P (platelet P-selectin); assay: Flow-cytometric analysis of platelet activation (CD62P on CD41a positive platelets); type: cell-based, human; conditions: for CD62P geometrical means of fluorescence intensity from TRAP-incubated samples: 35 μM TRAP, 20 min

FcMBL: 383-amino acid human recombinant fusion protein: carbohydrate-binding and neck domains of MBL and Fc domain of human IgG1
FcMBL coupled to the membrane under flow, PBS/EDTA washing [1]: stays bound under flow conditions

thrombin receptor activating peptide [TRAP]
CD62P geometrical means of fluorescence intensity from TRAP-incubated samples ([2]; 1st experiment): 1376 | CD62P geometrical means of fluorescence intensity from TRAP-incubated samples ([2]; 2nd experiment): 209 | CD62P geometrical means of fluorescence intensity from TRAP-incubated samples ([2]; 3rd experiment): 350 | CD62P geometrical means of fluorescence intensity, positive control ([2]; all experiments): > 200

From patent US20240001019A1, “MBL-COATED SUBSTRATES HAVING ANTI-THROMBOGENIC PROPERTIES” (MIRAKI INNOVATION THINK TANK LLC, priority 2020, published 2024)
